This note sets out measurements from patent US12421249B2, “Inhibitors of APOL1 and methods of using same” (Vertex Pharmaceuticals Incorporated, priority 2020, dated 2025).

Structures are written as SMILES. Read-outs that look alike come from different tables or passages of the source.

For one assay, the target named is T1, APOL1 G1 (Homo sapiens, UniProt O14791, I384M/S342G).
T1 sequence (O14791 28-398 S342G/I384M): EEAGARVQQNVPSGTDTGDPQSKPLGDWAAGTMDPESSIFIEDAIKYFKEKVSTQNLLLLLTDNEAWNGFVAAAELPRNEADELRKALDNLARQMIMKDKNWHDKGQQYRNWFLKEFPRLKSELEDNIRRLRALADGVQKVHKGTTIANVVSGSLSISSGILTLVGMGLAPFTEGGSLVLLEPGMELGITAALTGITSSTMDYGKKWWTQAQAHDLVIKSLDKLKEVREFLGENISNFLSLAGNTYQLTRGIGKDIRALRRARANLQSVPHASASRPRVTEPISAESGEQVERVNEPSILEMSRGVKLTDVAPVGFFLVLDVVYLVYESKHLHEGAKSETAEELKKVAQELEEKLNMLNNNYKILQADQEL
Kind of assay: Trypanosoma brucei brucei Lysis Assay Using APOL1 Recombinant Protein (AlamarBlue viability readout). The class given is cell-based. The following applies: for IC50: IP50 = IC50 for cell proliferation, read-out: Trypanosome Assay IP50; for Emax: read-out: Trypanosome Assay Max Activity (%). The gist of the method:
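Percent viability comes from AlamarBlue (resazurin→resorufin) fluorescence interpolated on a standard curve of known parasite numbers, with no-APOL1 wells as 100%. Parasites (Lister 427 bloodstream form, 120,000/well, serum-free assay medium) meet 0.05 μg/mL APOL1 (~EC90). Compounds span a 10-point series, 0.1% DMSO final.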

A further assay has as its target T2, APOL1 (Homo sapiens, UniProt O14791).
T2 sequence (O14791 1-398 S342G/I384M): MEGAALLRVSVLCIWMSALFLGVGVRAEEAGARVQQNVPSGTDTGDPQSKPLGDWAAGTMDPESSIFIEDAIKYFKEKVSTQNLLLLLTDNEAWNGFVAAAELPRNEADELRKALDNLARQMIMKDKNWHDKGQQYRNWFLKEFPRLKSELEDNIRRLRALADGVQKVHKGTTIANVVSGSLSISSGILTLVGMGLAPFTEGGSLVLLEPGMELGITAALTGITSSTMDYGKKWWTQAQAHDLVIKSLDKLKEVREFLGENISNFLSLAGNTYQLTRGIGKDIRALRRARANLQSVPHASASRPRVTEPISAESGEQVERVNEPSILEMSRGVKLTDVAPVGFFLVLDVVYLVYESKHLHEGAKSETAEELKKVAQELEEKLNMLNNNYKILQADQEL
Kind of assay: Multi-Tox Assay (MultiTox-Fluor Multiplex Cytotoxicity Assay in tet-inducible APOL1 T-REx-HEK293 cells; Table 46 does not say which APOL1 variant G0/G1/G2). The class given is cell-based. The conditions noted are these: APOL1 variant not given; for IC50: IP50 = IC50 for cell proliferation.

With `C[C@H]1C[C@@]2(C[C@@H](c3cnccc3O)N1)OCCc1cc(Cl)sc12` (racemic) [Compound 160], on APOL1 G1 (Trypanosome Assay), the IC50 is greater than 500 nM and the Emax was determined as 97.5%. In addition, at APOL1, the IC50 is greater than 500 nM.
Consider `Cc1nc[nH]c1[C@@H]1C[C@]2(C[C@H](C)N1)OCCc1cc(Cl)sc12` (racemic) [Compound 161], for which the IC50 on APOL1 G1 (Trypanosome Assay) and at APOL1 was greater than 500 nM each time. Besides, the Emax on APOL1 G1 (Trypanosome Assay) stood at 73%.
On to `CC(C)c1c[nH]c([C@@H]2C[C@]3(C[C@H](C)N2)OCCc2cc(Cl)sc23)n1` (racemic) [Compound 162], for which, on APOL1 G1 (Trypanosome Assay), the IC50 was greater than 500 nM and the Emax is 81%. This molecule also returned an IC50 on APOL1 greater than 500 nM.
As to `C[C@H]1C[C@@]2(C[C@@H](c3cnn4c3OCCC4)N1)OCCc1cc(Cl)sc12` (racemic) [Compound 163], on APOL1 G1 (Trypanosome Assay), the IC50 was greater than 500 nM and the Emax was 79.5%. Also, the IC50 on APOL1 is greater than 500 nM.
Turning to `Cc1nccnc1[C@@H]1C[C@]2(C[C@H](C)N1)OCCc1cc(Cl)sc12` (racemic) [Compound 164], the IC50 at APOL1 G1 (Trypanosome Assay) and at APOL1 was greater than 500 nM each time. On APOL1 G1 (Trypanosome Assay), the Emax was 85%.
As to `C[C@H]1C[C@@]2(C[C@@H](c3ncc(C(F)(F)F)[nH]3)N1)OCCc1cc(Cl)sc12` (racemic) [Compound 165], at APOL1 G1 (Trypanosome Assay), the IC50 was greater than 500 nM and the Emax was 61%. Besides, on APOL1, the “Multi-Tox Assay Max Activity (%)” value came out at 92.0% and the IC50 was greater than 500 nM.
For the molecule `COc1cccc([C@@H]2C[C@]3(C[C@H](C)N2)OCCc2cc(Cl)sc23)c1O` (racemic) [Compound 166], on APOL1 G1 (Trypanosome Assay), the IC50 was greater than 500 nM and the Emax came out at 57.5%. The IC50 against APOL1 is greater than 500 nM.
For the molecule `Cc1cccnc1[C@@H]1C[C@]2(C[C@H](C)N1)OCCc1cc(Cl)sc12` (racemic) [Compound 167], at APOL1 G1 (Trypanosome Assay), the IC50 was greater than 500 nM and the Emax is 73%. At APOL1, this molecule showed an IC50 greater than 500 nM.
As for `C[C@H]1C[C@@]2(C[C@@H](c3cccc4cn[nH]c34)N1)OCCc1cc(Cl)sc12` (racemic) [Compound 168], on APOL1 G1 (Trypanosome Assay), the IC50 was greater than 500 nM and the Emax stood at 54.5%. In addition, at APOL1, the IC50 was greater than 500 nM.
For the molecule `C[C@H]1C[C@@]2(C[C@@H](c3n[nH]c4ccccc34)N1)OCCc1cc(Cl)sc12` (racemic) [Compound 169], at APOL1 G1 (Trypanosome Assay), the IC50 was greater than 500 nM and the Emax is 61%. The molecule also gave an IC50 against APOL1 greater than 500 nM.
As for `Cc1nc2c([C@@H]3C[C@]4(C[C@H](C)N3)OCCc3cc(Cl)sc34)cccc2o1` (racemic) [Compound 170], on APOL1 G1 (Trypanosome Assay), the IC50 was greater than 500 nM and the Emax stood at 71.5%. In addition, at APOL1, the “Multi-Tox Assay Max Activity (%)” value is recorded as 89.7% and the IC50 was greater than 500 nM.
Turning to `C[C@H]1C[C@@]2(C[C@@H](c3ncnn3C)N1)OCCc1cc(Cl)sc12` (racemic) [Compound 171], the IC50 at APOL1 G1 (Trypanosome Assay) and against APOL1 was greater than 500 nM throughout. Further, the Emax at APOL1 G1 (Trypanosome Assay) turned out to be 14%.
For the molecule `C[C@H]1C[C@@]2(C[C@@H](c3ncccc3O)N1)OCCc1cc(Cl)sc12` (racemic) [Compound 172], at APOL1 G1 (Trypanosome Assay), the IC50 is greater than 500 nM and the Emax was 64.5%. The molecule further came in with an IC50 at APOL1 greater than 500 nM.
`C[C@@H]1C[C@]2(C[C@H](C)N1)OCC(O)c1cc(Cl)sc12` (mixture of isomers) [Compound 205, (2R,6S)-2-chloro-2′,6′-dimethyl-spiro[4,5-dihydrothieno[2,3-c]pyran-7,4′-piperidine]-4-ol]: the figures for the IC50 at APOL1 G1 (Trypanosome Assay) and at APOL1 were 50 to 500 nM and less than 50 nM, respectively. In addition, the Emax at APOL1 G1 is 106%.
As for `C[C@@H]1CC2(C[C@@H](c3cn(C)nn3)N1)OCCc1cc(Cl)sc12` (single isomer, unassigned) [Compound 7], on APOL1 G1 (Trypanosome Assay), the IC50 is greater than 500 nM and the Emax is 92%. At APOL1, this molecule registered a 90% effect concentration (IC90) of 50 to 500 nM and an IC50 of 50 to 500 nM.
As for `C[C@H]1CC2(C[C@@H](c3cn(C)nn3)N1)OCCc1sc(Cl)cc12` (single isomer, unassigned) [Compound 173], at APOL1 G1 (Trypanosome Assay), the IC50 is less than 50 nM and the Emax came out at 116%. The molecule also displayed an IC50 against APOL1 of less than 50 nM.
For `C[C@H]1CC2(CC(c3cnn(C)c3)N1)OCC(O)c1cc(Cl)sc12` (single isomer, unassigned) [Compound 175], at APOL1 G1 (Trypanosome Assay), the IC50 is less than 50 nM and the Emax is 106%. Further, at APOL1, the IC90 was less than 50 nM, the “Multi-Tox Assay Max Activity (%)” value was 100.0% and the IC50 is less than 50 nM.
Turning to `C[C@H]1CC2(CC(c3cnn(C)c3)N1)OCC(O)c1cc(Cl)sc12` (single isomer, unassigned) [Compound 176], on APOL1 G1 (Trypanosome Assay), the “Trypanosome Assay Max Activity (%)” value is 115.5% and the IC50 was less than 50 nM. In addition, at APOL1, the IC90 was less than 50 nM, the “Multi-Tox Assay Max Activity (%)” value came out at 100.0% and the IC50 is less than 50 nM.
`C[C@H]1C[C@@]2(C[C@@H](c3cn(C)nn3)N1)OCC(O)(C(F)F)c1cc(Cl)sc12` (single isomer, unassigned) [Compound 184]: the IC50 at APOL1 G1 (Trypanosome Assay) was 50 to 500 nM; on APOL1, less than 50 nM.
On to `C[C@H]1C[C@@]2(C[C@@H](c3cn(C)nn3)N1)OCC(O)(C(F)F)c1cc(Cl)sc12` (single isomer, unassigned) [Compound 185], for which, on APOL1 G1 (Trypanosome Assay), the “Trypanosome Assay Max Activity (%)” value is 99.0% and the IC50 was in the range of 50 to 500 nM. For the same molecule, on APOL1, the IC90 is less than 50 nM, the “Multi-Tox Assay Max Activity (%)” value is given as 99.5% and the IC50 was less than 50 nM.
On to `C[C@@H]1CC2(C[C@H](C)N1)OCCc1sc(C(F)(F)F)cc12` (single isomer, unassigned) [Compound 196], for which, on APOL1 G1 (Trypanosome Assay), the IC50 was in the range of 50 to 500 nM and the Emax is 111%. Also, the IC50 against APOL1 was 50 to 500 nM.
Regarding `C[C@@H]1CC2(C[C@H](C)N1)OCCc1cc(Br)sc12` (single isomer, unassigned) [Compound 197], the IC50 on APOL1 G1 (Trypanosome Assay) and at APOL1 was 50 to 500 nM throughout. Also, the Emax at APOL1 G1 came to 106%.
Consider `C[C@@H]1CC2(C[C@H](C)N1)OCCc1cc(C3CC(F)(F)C3)sc12` (single isomer, unassigned) [Compound 198], for which the IC50 at APOL1 G1 (Trypanosome Assay) and against APOL1 was 50 to 500 nM each time.
For `CCc1cc2c(s1)C1(C[C@@H](C)N[C@@H](C)C1)OCC2` (single isomer, unassigned) [Compound 199], the IC50 at APOL1 G1 (Trypanosome Assay) was 50 to 500 nM; at APOL1, less than 50 nM. Also, the Emax on APOL1 G1 is 110%.
The corresponding values for `CC(C)c1cc2c(s1)C1(C[C@@H](C)N[C@@H](C)C1)OCC2` (single isomer, unassigned) [Compound 200] are 50 to 500 nM, 50 to 500 nM and 98.7%.
As for `CC(C)Cc1cc2c(s1)C1(C[C@@H](C)N[C@@H](C)C1)OCC2` (single isomer, unassigned) [Compound 201], the IC50 at APOL1 G1 (Trypanosome Assay) was greater than 500 nM; against APOL1, 50 to 500 nM. The Emax at APOL1 G1 (Trypanosome Assay) is 76.7%.
The corresponding values for `C[C@@H]1CC2(C[C@H](C)N1)OCCc1cc(C3CCCCC3)sc12` (single isomer, unassigned) [Compound 202] are greater than 500 nM, greater than 500 nM and 19%.
For `C[C@@H]1CC2(C[C@H](C)N1)OCCc1cc(CC(F)F)sc12` (single isomer, unassigned) [Compound 203], in that order: less than 50 nM, less than 50 nM and 102%.

In general, IC90 refers to the point of the concentration-response curve where the effect stands at 90%. Low values mean greater potency, high ones weaker potency.
